“And” between values parts separate entries of the source, which are not always exact repeats. Equal values may be shown once.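 1) Cells in 96-well plates. 2) Compound, 48 h, 5 concentrations. 3) Linear interpolation between surrounding doses. 4) Unreached endpoint = highest concentration. The concentration for 50% growth inhibition is given as GI50. TGI denotes the concentration required for complete inhibition of growth.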
Key:
Assay in all cases: NCI tumour cell line growth inhibition, 48 h
[1] = system: A498 renal
[2] = system: BT-549 breast
[3] = system: MOLT-4 leukemia
[4] = system: OVCAR-4 ovarian
[5] = system: RPMI-8226 leukemia
[6] = system: RXF 393 renal
[7] = system: SF-268 CNS
[8] = system: SK-MEL-5 melanoma
[9] = system: UO-31 renal
[10] = system: UACC-257 melanoma

Row | Compound | TGI [1] | TGI [2] | TGI [3] | TGI [4] | TGI [5] | TGI [6] | TGI [7] | TGI [8] | TGI [9] | TGI [10] | GI50 [1] | GI50 [6] | GI50 [10] | GI50 [9] | GI50 [7]
1 | COc1ccc(-c2cc(-c3ccccc3)[nH]c(=S)c2C#N)cc1 | 60.2 µM | > 100 µM | > 100 µM | > 100 µM | 51.7 µM | > 100 µM | > 100 µM | 34.3 µM | 45.7 µM |  |  |  |  |  | 
2 | C[C@H]1SC(c2ccc(Cl)cc2Cl)N(NC(=O)c2ccncc2)C1=O (stereo partly drawn) | 78.4 µM | > 100 µM |  |  | > 100 µM | 61.2 µM | 72.3 µM | 37 µM | 96.1 µM |  |  |  |  |  | 
3 | Cc1cnc2c(c1)C(=O)C1=C(C2=O)C2OC(=O)CC2OC1(C)C (stereo not drawn) | 3.75 µM | 0.363 µM |  | 0.359 µM |  | 0.507 µM | 0.623 µM | 0.997 µM | 1.26 µM | 0.469 µM |  |  |  |  | 
4 | COc1c(O)c2c(=O)cc(OC)c3c4c(OC)cc(=O)c5c(O)c(OC)c6c(c(c1C(C(C)O)C6C(C)O)c23)c54 (stereo not drawn) | 3.45 µM |  | 1.25 µM | 4.96 µM | 4.8 µM | 1.76 µM | 15 µM | 1.15 µM | 2.3 µM |  |  |  |  |  | 
5 | COc1nc(C#CC(C)(C)C)nc(OC)n1 | > 100 µM | > 100 µM | > 100 µM | 35.5 µM |  | > 100 µM | 78.6 µM | 39 µM | > 100 µM | > 100 µM |  |  |  |  | 
6 | COC(=O)C1=Nc2c(C)nn(-c3ccccc3)c2N=C(c2ccccc2)C1 |  | > 10 µM | > 10 µM | > 10 µM | > 10 µM |  | > 10 µM | > 10 µM |  | > 10 µM |  |  |  |  | 
7 | CCC(C(=O)C(=O)OC)P1(=O)OC(C)(C)CN1C(C)(C)C (stereo not drawn) | 53.1 µM | > 100 µM | > 100 µM | > 100 µM | > 100 µM |  | > 100 µM | > 100 µM | > 100 µM | > 100 µM |  |  |  |  | 
8 | CCOC(=O)/C(O)=C1\C(=O)N(C)C(=O)C1c1cccc(OC)c1 (stereo not drawn) | > 100 µM |  | > 100 µM | > 100 µM | > 100 µM | > 100 µM | > 100 µM | > 100 µM | > 100 µM | > 100 µM |  |  |  |  | 
9 | O=c1cc(-c2cc(O)c(O)c(-c3c(O)cc4oc(-c5ccc(O)c(O)c5)cc(=O)c4c3O)c2)oc2cc(O)cc(O)c12 | > 25 µM | > 25 µM | > 25 µM | > 25 µM |  | > 25 µM | > 25 µM | > 25 µM | > 25 µM | > 25 µM |  |  |  |  | 
10 | N#Cc1nc(NC(=O)c2ccccc2C(=O)O)c(C#N)[nH]1 | > 100 µM |  | > 100 µM |  | > 100 µM |  | > 100 µM | > 100 µM | > 100 µM | > 100 µM |  |  |  |  | 
11 | NC(=O)N/N=C1\CC2C3CC4C2C4C13 (stereo not drawn) | > 100 µM | > 100 µM | > 100 µM | > 100 µM | > 100 µM |  | > 100 µM | > 100 µM | > 100 µM | > 100 µM |  |  |  |  | 
12 | Oc1[nH]c2ccccc2c1N=NC(=S)Nc1ccc(Cl)cc1 | 63 µM |  | > 100 µM | > 100 µM | > 100 µM | > 100 µM | > 100 µM | 63.4 µM | > 100 µM | > 100 µM |  |  |  |  | 
13 | CCOP(=O)(/C=C\n1ccc(N)nc1=O)OCC |  | > 100 µM | > 100 µM | > 100 µM | > 100 µM | > 100 µM | > 100 µM | > 100 µM |  | > 100 µM |  |  |  |  | 
14 | O=c1cc(N2CCCC2)[nH]c(=O)n1-c1ccccc1 |  | > 100 µM | > 100 µM | > 100 µM | > 100 µM |  |  | > 100 µM |  | > 100 µM |  |  |  |  | 
15 | OCc1ccc2c(c1)CC1(Cc3ccc(/C=N/O)cc3C1)C2 (stereo not drawn) | 96.5 µM | > 66.4 µM | > 40.4 µM | > 61.7 µM | 28.6 µM |  | > 100 µM | 8.25 µM | 80.9 µM | 18.7 µM |  |  |  |  | 
16 | CCCSc1nc(-c2ccc(OC)cc2)c(C#N)c(=O)n1C1OC(COC(C)=O)C(OC(C)=O)C(OC(C)=O)C1OC(C)=O (stereo not drawn) | > 100 µM and 78.2 µM |  | > 100 µM | > 100 µM | > 100 µM | > 100 µM and 61.2 µM | > 100 µM |  | > 100 µM | > 100 µM and 56.6 µM | 20.9 µM | > 100 µM and 17.2 µM | > 100 µM and 22.4 µM | > 100 µM and 36.9 µM | 
17 | N#Cc1nc(C2CCC2)oc1N | > 100 µM |  | > 100 µM | > 100 µM | > 100 µM | > 100 µM | > 100 µM | > 100 µM | > 100 µM | > 100 µM |  |  |  |  | 
18 | CC(=O)c1cnc2oc3ccc(O)cc3c2c1-c1ccccc1 | 88.6 µM |  | > 100 µM | 36.6 µM | > 100 µM | > 100 µM | > 100 µM | > 100 µM |  | > 100 µM |  |  |  |  | 27.7 µM

— PubChem BioAssay (NCI)
